In general, IC50 refers to the concentration that inhibits the measured activity by half. Higher therefore signals lower potency.

Consider 84 compounds from PubChem BioAssay AID2305 (GlaxoSmithKline (GSK), 2010).

This assay deals with P. falciparum 3D7 growth, pLDH absorbance. In words: P. falciparum 3D7 growth inhibition, dose response, strain 3D7 (AID 2305).

`O=S(=O)(/C=C/c1ccccc1)N(Cc1ccc(-c2ccc(CNCCc3ccccn3)cc2)cc1)CC1CCCCN1` (centres undefined) registered an IC50 of 740 nM.

Compound `Cc1ccc(Cc2cnc(NCCSCc3ccc(CN(C)C)s3)[nH]c2=O)cn1` had an IC50 of 860 nM. Next, `O=C(N[C@@H](CC1CCCCC1)C(=O)NC1CCCc2ccccc21)c1ccc(O)c(-c2cccc(C(F)(F)F)c2)c1` (some centres undefined): 600 nM; `CN1CCN(CCCNCc2cccc(-c3ccc(CNCCc4ccccc4)cc3)c2)CC1`: 780 nM. `CC(C)N1CCN(c2ccc(OCCCCN3CCN(c4cccc(Cl)c4Cl)CC3)cc2Cl)CC1` registered an IC50 of 1040 nM. With `CCCC1N=C(N)N=C(N)N1c1ccc(OC)cc1` (centres undefined) the figure was 230 nM; with `CCCOc1cc2c(cc1OCCC)C(C=Cc1ccc(Cl)cc1Cl)=NC(C)C2` (centres undefined), 370 nM. With `CN1CCCC1CCNCc1ccc(-c2ccc(CNCCc3ccccc3)cn2)cc1` (centres undefined) the figure was 1110 nM; with `Cc1ccc(NC(=O)c2cccc(CN3CCCN(Cc4cccc(O)c4)CC3)c2)cc1C`, 1040 nM.

For `CCC[C@@H](C(=O)NCCc1cccc(OC)c1)N1C(=O)c2c(ccc(OC)c2OC)C1C(=O)Nc1c(C)cccc1C` (some centres undefined), the IC50 turned out to be 810 nM. Next, `O=S(=O)(Nc1cccc(CCN2CCCCC2CCN2CCCC2)c1)c1ccc(Oc2ccccc2)cc1` (centres undefined): 1050 nM; `CCOc1cc(C(=O)N[C@@H](Cc2ccccc2)[C@H](O)CNCc2cc(OC)cc(OC)c2)cc(N2CCCCS2(=O)=O)c1`: 520 nM; `Cc1nc2ccc(/C=C/C(=O)NC3CCC(CCN4CCc5ccc(C#N)cc5CC4)CC3)cc2[nH]1` (centres undefined): 1140 nM.

`CCCCCCn1c(Sc2ccc(C#N)c([N+](=O)[O-])c2)nnc1-c1cc(OC)cc(OC)c1` gave an IC50 of 770 nM. `Cc1cc(C2CCN(CCCCNC(=O)c3ccc(-c4ccc(C(F)(F)F)cc4)cc3)CC2)c(C)cc1OCC(N)=O` yielded an IC50 of 800 nM. With `Cc1cccc2[nH]c(-c3ccc(-c4cccc(NC(=O)CCc5cnc[nH]5)c4)s3)nc12` the figure was 840 nM; with `CN1CCN(C(C(=O)NCc2cc(Cl)cc(Cl)c2)c2ccccc2-c2ccsc2)CC1` (centres undefined), 940 nM. For `CCCCOc1ccccc1C(=O)NCc1csc(-c2ccccc2)n1`, the IC50 was 560 nM.

As for `NC1=NC(c2ccccc2)(c2ccccc2)C(=O)N1Cc1ccc(-c2ccncc2)cc1`, the IC50 amounted to 770 nM.

For the compound `C[C@H](Cc1ccc(OCCCCCCOc2ccccc2)cc1)NC[C@@H](O)c1cc(Br)no1`, the IC50 came to 880 nM. For `C=C[C@]1(C)C[C@@H](OC(=O)CNC[C@@H](O)CN2C[C@H](c3ccnc4ccc(OC)nc34)OC2=O)[C@]2(C)[C@H](C)CC[C@]3(CCC(=O)[C@H]32)[C@@H](C)[C@@H]1O`, the IC50 was found to be 950 nM.

In turn, `Cn1cncc1-c1ccc2ncnc(Nc3ccc(OCc4ccccc4)cc3)c2c1` yielded an IC50 of 1340 nM. Consider `CCOC(=O)C1=C(C)NC(C)=C(C(=O)OCC)C1(C(=O)OCc1ccccc1)c1cccc(C(F)(F)F)c1`, for which the IC50 is 1230 nM. Next, `Cc1cc(NC(=O)Nc2ccc3nc(C)oc3c2)c2cc(Cl)ccc2n1`: 1120 nM; `CCCCCCNCc1c(O)ccc2c(CNCCCCCC)c(O)ccc12`: 130 nM. For the compound `COc1cc2nc(N(C)C)nc(Nc3ccc(OCc4ccccc4)cc3)c2cc1OC`, the IC50 was found to be 70 nM. In turn, `COc1ccc2nccc(N3CCC(SCCNS(=O)(=O)c4ccc5c(c4)NC(=O)CS5)C3)c2n1` (centres undefined) returned an IC50 of 1580 nM. Turning to `COc1ccc(NC(=O)NCC2CCCN(CCCCCNC(=O)/C=C/c3ccc(Cl)c(Cl)c3)C2)c(OC)c1` (centres undefined), the IC50 was determined as 860 nM.

With `CCNc1cc(C(=O)N[C@@H](Cc2ccccc2)[C@H](O)CNC(CC)c2cccc(Cl)c2)cc(N2CCCC2=O)c1` (some centres undefined), the IC50 was 30 nM. Turning to `CCCCCCCN(CCCCCCC)CCNc1cc(C)nc2ccccc12`, the IC50 turned out to be 340 nM. With `Cc1cc(N(C)CCN(C)C)nc(Nc2ccc(Br)cc2)n1` the figure was 800 nM. As to `CS(=O)(=O)c1cccc(-c2cnc3[nH]cc(-c4ccc(CCC(=O)O)cc4)c3c2)c1`, the IC50 was 630 nM. Next, `CS(=O)(=O)CCNCc1ccc(-c2ccc3ncnc(Nc4ccc(OCc5ccccc5)c(Cl)c4)c3c2)o1`: 560 nM; `Cc1ccc(O)cc1Nc1ccnc2ccc(-c3csc(CNCCN4CCOCC4)n3)cc12`: 150 nM; `CCCCCNc1nc2nc(N)nc(N)c2nc1-c1ccccc1`: 950 nM. For `FC(F)(F)c1cccc(Nc2nc3ccccc3nc2Nc2cccc(C(F)(F)F)c2)c1`, the IC50 came out at 140 nM.

For the compound `Cc1[nH]c2ccccc2c1C(=O)C(C)Sc1n[nH]c(-c2ccccc2Br)n1` (centres undefined), the concentration for half-maximal inhibition (IC50) is 30 nM. With `O=C(Nc1ccc(Cl)cc1)N[C@H]1CCN(CCCCCNC(=O)[C@@H]2C[C@H]2c2ccc(Cl)c(Cl)c2)C1` the figure was 870 nM; with `Cc1cccc2[nH]c(-c3ccc(-c4cccc(NC(=O)c5cncn5C)c4)s3)nc12`, 640 nM; with `c1ccc2c(NCCCCCCNc3ccnc4ccccc34)ccnc2c1`, 190 nM. Next, `CCN(CC)CCN(CCN(CC)CC)c1ccc(-c2nc3cc(Cl)c(Cl)cc3[nH]2)cc1`: 780 nM; `CCCC(C)c1ccc(N2C(N)=NC(N)=NC2(C)C)cc1` (centres undefined): 10 nM; `COc1ccc(-c2cc(C(=O)N[C@@H](CC3CCCCC3)C(=O)NCCN3CCCC3)ccc2O)cc1`: 870 nM. `Cc1nc(-c2ccc(-c3ccc(C(=O)Nc4ccc(Cl)c(N5CCN(C)CC5)c4)cc3)c(C)c2)no1`: the IC50 came out at 740 nM. In turn, `CNCc1cccc2[nH]c(-c3ccc(Cc4cc(Cl)ccc4OCC(C)C)o3)nc12` displayed an IC50 of 900 nM. With `COCCN1CCC(CNCC(C)(C)c2nc(-c3ccc(Cl)c(O)c3)c(-c3ccncc3)[nH]2)CC1` the figure was 750 nM; with `CC(C)(C)c1ccc(CN2CCC(CNC(=O)c3cc(-c4ccccc4)nc4ccccc34)CC2)cc1`, 1020 nM. Next, `c1ccc2c(NCCc3cnc[nH]3)c3ccccc3nc2c1`: 1040 nM. For `Cc1cc(CNCCCCCCNCc2ccc(Cl)cc2)ccc1O`, the IC50 was 820 nM.

`COc1ccccc1CCN1CCC(CN(C)Cc2ccc(O)c(Cl)c2)CC1` came in with an IC50 of 330 nM. With `COc1cc(Cc2cnc(N)nc2N)cc(OCCCCCCC(=O)O)c1OC` the figure was 940 nM. Next, `COc1ccc(N2CCN(CCc3ccc(NC(=O)c4ccc([N+](=O)[O-])cc4)cc3)CC2)c(OC)c1`: 1170 nM; `CN(C)Cc1c(O)ccc2[nH]c(-c3cccc(F)c3)nc12`: 1000 nM; `COc1ccc(S(=O)(=O)N(CCCN2CCN(C)CC2)Cc2csc(-c3ccc(CNCc4ccccc4)cc3)n2)cc1`: 950 nM. With `CCc1ccc(CN2CCC(NC(=O)c3ccc(-c4ccccc4F)s3)CC2)cc1` the figure was 1490 nM; with `CN1CCN(CC(=O)Nc2cccc(-c3ccc(-c4nc5ccc(C(F)(F)F)cc5[nH]4)s3)c2)CC1`, 310 nM. For `Cc1ccc(C(=O)Nc2cccc(CN3CCCN(Cc4ccc(O)cc4)CC3)c2)cc1`, the IC50 is 1090 nM.

Compound `COc1ccc(S(=O)(=O)NCCC2CCN(CCCCCNC(=O)C=Cc3ccc(Cl)c(Cl)c3)CC2)cc1` showed an IC50 of 960 nM.

As to `Cc1ccn2cc(-c3ccc(NC(=O)c4ccc(Br)o4)cc3)nc2c1`, the IC50 came out at 740 nM. With `CC(=O)Nc1ncc(C(=O)Nc2cccc(-c3cccc(-c4nc5ccc(C(F)(F)F)cc5[nH]4)c3)c2)s1` the figure was 180 nM; with `Cc1cccc2[nH]c(-c3ccc(-c4cccc(NC(=O)C(C)CN5CCN(C)CC5)c4)s3)nc12` (centres undefined), 750 nM; with `Cc1cccc2[nH]c(-c3ccc(-c4cccc(C(=O)N5CCCCC5C(C)O)c4)s3)nc12` (centres undefined), 640 nM. Next, `c1cc(-c2ccc(CNC3CC3)cc2)cc(-c2nc3ccccc3[nH]2)c1`: 1660 nM; `Cc1nnc2c(NC(=O)NC3CCCC3)cc3cc(-c4ccc(CN5CCCCC5)cc4)ccc3n12`: 950 nM. With `NC(=O)c1sc(-n2cnc3ccccc32)cc1OCc1ccccc1[N+](=O)[O-]` the figure was 700 nM; with `O=C(Nc1cccc(C(F)(F)F)c1)c1cccc(S(=O)(=O)NCC2CCCN2CC2CCCCC2)c1` (centres undefined), 1110 nM. As for `COc1ccc2nc3cc(Cl)ccc3c(Nc3ccc(Oc4ccc(Nc5c6ccc(Cl)cc6nc6ccc(OC)cc56)cc4)cc3)c2c1`, the IC50 is 860 nM.

In turn, `CCc1c(CCNC/C=C/C=C/CNCCc2ccc(OC)c(OC)c2CC)ccc(OC)c1OC` gave an IC50 of 970 nM. As to `CCN(CC)CCCSc1ccc(-c2ccc(SCCCN(CC)CC)cc2)cc1`, the IC50 came out at 1160 nM. `O=C(NCc1ccc(Cl)c(Cl)c1)c1ccc(C2CCCN(Cc3ccc4nc[nH]c4c3)C2)cc1` (centres undefined): the IC50 is 780 nM. Next, `CCCC(=O)Nc1ccc(OCCCCN(CC(C)(C)C)c2ccc(C#N)c(C(F)(F)F)c2)cc1`: 1350 nM; `CCN(CC)CCN(Cc1ccc(-c2ccc(C(F)(F)F)cc2)cc1)C(=O)Cn1c(CCc2ccc(F)cc2)nc(=O)c2sccc21`: 670 nM; `O=C(NC1CCC(N2CCN(c3cccc4[nH]ccc34)CC2)CC1)c1cc2cccnc2[nH]1` (centres undefined): 490 nM. With `CS(=O)(=O)N(c1cccc(F)c1)c1cc(C(=O)N[C@@H](Cc2ccccc2)[C@H](O)CNCc2cccc(C(F)(F)F)c2)cc(N2CCCC2=O)c1` the figure was 910 nM; with `O=C(/C=C/c1ccc(Cl)c(Cl)c1)NCC[C@@H]1C[C@H]1CCN1CCC(c2c[nH]c3ccccc23)CC1`, 790 nM; with `O=c1c(NCCCN(Cc2ccc(F)cc2)c2ccccn2)c(NCc2cccnc2)c1=O`, 60 nM. Next, `Fc1ccc(-c2cncc(-c3ccc(F)cc3)n2)cc1`: 640 nM; `NC(=O)c1ccc(NC(=O)CN(Cc2ccc(Cl)cc2)S(=O)(=O)c2ccccc2)cc1`: 650 nM; `O=C(/C=C/c1ccc([N+](=O)[O-])cc1)N1CCC(NS(=O)(=O)c2ccc(Br)cc2)CC1`: 1050 nM. Compound `COc1ccc2nccc(NN=Cc3cccc(Cl)c3)c2c1` registered an IC50 of 190 nM.

`CC(C)CN1C(=O)c2ccc(C(=O)Nc3nccs3)cc2C1=O` returned an IC50 of 970 nM.

Turning to `COc1ccc2nccc(NC(=O)N3CCC(NCc4cc5c(F)ccc(F)c5[nH]4)CC3)c2n1`, the IC50 turned out to be 220 nM. Next, `CC(C)[C@H](NC(=O)c1ccc(O)c(-c2ccc(Cl)c(Cl)c2)c1)C(=O)NCCN1CCCCC1`: 340 nM; `COc1ccccc1NC(=O)CSc1nc2cccnc2n1-c1ccccc1OC`: 360 nM.
